Experimental data reported in ChEMBL document CHEMBL1156829 (Proc Natl Acad Sci U S A, 2008).

What was measured:
[1] = tested on: Plasmodium falciparum; assay: NOVARTIS: Inhibition of Plasmodium falciparum W2 (drug-resistant) proliferation in erythrocyte-based infection assay; assay type: functional, organism-based; conditions: Plasmodium falciparum, W2; read-out: EC50
[2] = NOVARTIS: Cytotoxicity against human hepatocellular carcinoma cell line (Huh7); assay type: toxicity, cell-based, Huh-7; conditions: Huh7 cells (hepatocellular carcinoma cell line)
[3] = tested on: Plasmodium falciparum; assay: NOVARTIS: Inhibition of Plasmodium falciparum 3D7 (drug-susceptible) proliferation in erythrocyte-based infection assay; assay type: functional, organism-based; conditions: Plasmodium falciparum, 3D7

SMILES	EC50 [1]	CC50 [2]	EC50 [3]
CCN(CC)CCCNc1nc2cc(OC)c(OC)cc2c2nc(-c3ccccc3)nn12	1170 nM	> 100000 nM	3250 nM
COc1cc(C(c2c(C)n(C)n(-c3ccccc3)c2=O)c2c(C)n(C)n(-c3ccccc3)c2=O)cc(Cl)c1OCc1ccccc1	456 nM	38300 nM	2700 nM
CCOc1ccc(Nc2cc(C)nc3c(C)cc(C)cc23)cc1	225 nM	19200 nM	484 nM
CCCCCn1c(C)[n+](CCCC)c2cc(Cl)c(Cl)cc21	1160 nM	> 100000 nM	1240 nM
COc1ccc(CN(Cc2cc3cccc(C)c3nc2N2CCCC(O)C2)C(=O)c2ccc(OC)c(OC)c2)cc1 (configuration not stated)	1220 nM	> 100000 nM	1420 nM
COc1ccc(CN(Cc2ccc(C(C)C)cc2)S(=O)(=O)c2ccc(S(=O)(=O)N3CCN(c4ccccc4F)CC3)cc2)cc1	1210 nM	> 100000 nM	> 12500 nM
CCC(=O)N1CCc2cc(Br)cc(S(=O)(=O)N3CC(C)CC(C)C3)c21 (configuration not stated)	1160 nM	> 100000 nM	1970 nM
CC1(C)N=C(N)N=C(N)N1c1ccccc1	988 nM	> 83700 nM	174 nM
Cc1cccc(OCC(=O)Nc2cccc(NC(=O)COc3cccc(C)c3)n2)c1	1160 nM	> 100000 nM	237 nM
FC(F)(F)c1cnc(Sc2nnc(-c3ccncc3)o2)c(Cl)c1	976 nM	83900 nM	1870 nM
Brc1ccc(C=NNc2nc3ccccc3[nH]2)cc1	674 nM	55800 nM	226 nM
CC(C)CN1C(=O)c2ccccc2C(C(=O)Nc2ccc(C(C)C)cc2)C1c1cccs1 (configuration not stated)	1200 nM	> 100000 nM	2410 nM
CC[n+]1c(/C=C/c2ccc(C)cc2)ccc2ccccc21	119 nM	> 10000 nM	97.4 nM
CC(=O)N(C1=C(N(C)C)C(=O)c2ccccc2C1=O)c1ccc(F)cc1	32 nM	2680 nM	24.4 nM
COc1ccc(OC)c(CN2CCC3(CC2)CC3C(=O)NCCc2ccccc2OC)c1 (configuration not stated)	1190 nM	> 100000 nM	> 3170 nM
Cc1ccc(CNC(=O)C2CNCC2c2ccc(C(F)(F)F)cc2)cc1 (configuration not stated)	121 nM	> 10000 nM	243 nM
c1ccc(CN2CCC(NCc3c[nH]c4ccccc34)CC2)cc1	120 nM	> 10000 nM	208 nM
CC(C)C(=O)NC(Nc1cccc([N+](=O)[O-])c1)C(Cl)(Cl)Cl (configuration not stated)	1200 nM	> 100000 nM	1560 nM
O=C(CN1CCCC1)N1N=C(c2cccs2)CC1c1ccc(F)cc1 (configuration not stated)	1200 nM	> 100000 nM	> 12500 nM
C=CCn1cc(C=NNc2nc3ccccc3[nH]2)c2ccccc21	220 nM	18400 nM	91.3 nM
Cn1cnnc1SCC(=O)Nc1ccccc1C(F)(F)F	1190 nM	> 100000 nM	> 12500 nM
COc1cc(C=C(C#N)c2nc3ccccc3[nH]2)ccc1OCc1ccccc1Cl	1190 nM	> 100000 nM	757 nM
CCN1CCN(c2c(Cl)cccc2NC(=O)C(Cl)(Cl)Cl)CC1	1180 nM	> 100000 nM	1670 nM

SMILES	EC50 [1]	CC50 [2]	EC50 [3]
CN1C=C(c2ccc3ccccc3n2)C(c2c[nH]c3ccccc23)c2ccccc21 (configuration not stated)	1210 nM	> 100000 nM	1140 nM
COc1cc2nc(NCCCOC(C)C)n3nc(-c4ccccc4)nc3c2cc1OC	1210 nM	> 100000 nM	793 nM
CC1CCN(CCCNc2ccc(C(=O)Nc3ccc(C(F)(F)F)cc3)cc2[N+](=O)[O-])CC1	278 nM	23400 nM	199 nM
Cc1cc(N2CCCC2)nc2ccc(NC(=S)NCCCN3CCN(Cc4ccccc4)CC3)cc12	658 nM	55500 nM	116 nM
CC(C)C(=O)N(C)CCCNc1ccnc2cc(Cl)ccc12	118 nM	> 10000 nM	131 nM
O=C(Nc1cccc(N2CCC(NCC3CCCCC3)CC2)c1)C1CC1	1180 nM	> 100000 nM	3680 nM
Cc1ccc(-c2c[n+](CC(=O)c3ccccc3Cl)c3n2CCC3)cc1	1110 nM	> 95900 nM	1010 nM
COc1cc(OC)cc(C(=O)NCC2Cc3cc(Cl)cc(-c4ccncc4)c3O2)c1 (configuration not stated)	537 nM	44100 nM	368 nM
N#Cc1cccc(C=CC(=O)O)c1	1220 nM	> 100000 nM	> 12500 nM
Oc1ccc(-c2ccc3c(c2)OCO3)cc1CNC1CCN(Cc2ccccc2)CC1	364 nM	29900 nM	598 nM
COc1ccc2c(C)nc(Nc3nc(C)cc(-c4ccccc4)n3)nc2c1	1160 nM	> 100000 nM	341 nM
Cc1nc(-c2ccc[n+](C)c2)sc1C(=O)C=Cc1ccc(Cl)cc1	797 nM	65200 nM	341 nM
CCCOC(=O)CSc1nc(N)c(C#N)c(-c2ccco2)c1C#N	1220 nM	> 100000 nM	1890 nM
COc1ccc(S(=O)(=O)N2CCCCC2C(=O)NC(CN2CCCC2)c2ccccc2)cc1 (configuration not stated)	122 nM	> 10000 nM	168 nM
CC(=NNC(=O)/C(=C/c1ccc([N+](=O)[O-])cc1)NC(=O)c1ccccc1)c1ccccn1	117 nM	> 10000 nM	1050 nM
Cn1cc(C(c2cccs2)c2cn(C)c3ccccc23)c2ccccc21	610 nM	52300 nM	1370 nM
COc1ccc(Nc2nc(NCc3ccccc3)c3ccccc3n2)cc1	106 nM	8670 nM	212 nM
COc1cc(C(=O)NC(c2cccs2)c2cc(Cl)c3cccnc3c2O)cc(OC)c1OC (configuration not stated)	1230 nM	> 100000 nM	1490 nM
CC(=O)N(C1=C(N2CCCCC2)C(=O)c2ccccc2C1=O)c1cccc(Cl)c1	375 nM	32000 nM	239 nM
Cc1cc(C)c(S(=O)(=O)N2CCCC2CNC(=O)c2cccc([N+](=O)[O-])c2)c(C)c1 (configuration not stated)	1230 nM	> 100000 nM	914 nM
O=[N+]([O-])c1cccc(C(Nc2nccs2)c2ccc3cccnc3c2O)c1 (configuration not stated)	198 nM	16100 nM	294 nM
CCCc1c2ccc(C)n2cc[n+]1CC(=O)c1ccc(OC)cc1	1230 nM	> 100000 nM	806 nM
Cc1ccn2c(NC(C)(C)CC(C)(C)C)c(-c3ccccc3OC(=O)c3ccccc3Br)nc2c1	117 nM	> 10000 nM	760 nM

SMILES	EC50 [1]	CC50 [2]	EC50 [3]
CCCCCCc1ccc(C(=O)Oc2ccccc2-c2nc3cc(C)ccn3c2NC(C)(C)CC(C)(C)C)cc1	162 nM	> 13800 nM	813 nM
Cc1ccc(-c2c3c4n(c(-c5ccc(Cl)cc5)cn4c2C(=O)Nc2ccccc2Cl)CCCC3)cc1	1160 nM	> 100000 nM	269 nM
Cc1ccc2nc(C)cc(NCCN(C)C)c2c1	709 nM	59100 nM	360 nM
Cc1cc2c(Nc3cccc(Cl)c3C)ncnc2s1	1190 nM	> 100000 nM	1910 nM
N#CC(=Cn1cc(Cc2ccc(Cl)cc2Cl)c2ccccc21)c1nn(CCO)c(N)c1C#N	909 nM	75000 nM	629 nM
COc1cc(CN2CC3CC(C2)c2cccc(=O)n2C3)ccc1O (configuration not stated)	1210 nM	> 100000 nM	> 12500 nM
C(=NNc1nc2ccccc2[nH]1)c1ccccc1	1190 nM	> 100000 nM	587 nM
CCCSc1nc(N)c2c3c(sc2n1)CN(CCC)CC3	1230 nM	> 100000 nM	1420 nM
COc1ccc(OC)c(-c2ccc(O)c(CNCC3CCCCC3)c2)c1	120 nM	> 10000 nM	350 nM
CCOC(=O)C1CCN(C(=S)Nc2ccc3nsnc3c2)CC1	370 nM	30300 nM	347 nM
CCC(c1nc2ccccc2c(=O)n1-c1ccccc1OC)N(CCc1ccccc1)C(=O)c1cccc(C(F)(F)F)c1 (configuration not stated)	118 nM	> 10000 nM	919 nM
COc1ccccc1C(NC(=O)c1cc(OC)c(OC)c(OC)c1)c1cc(Cl)c2cccnc2c1O (configuration not stated)	1230 nM	> 100000 nM	2200 nM
N#Cc1c2c(c(N3CCN(c4ccccn4)CC3)n3c1nc1ccccc13)CCC2	1180 nM	> 100000 nM	2360 nM
CCN(CC)S(=O)(=O)c1ccc(-c2csc(Nc3ccc(C)c(C)c3)n2)cc1	> 1170 nM	> 100000 nM	> 2100 nM
O=c1c2cnn(-c3ccccc3)c2nc(-c2ccccc2F)n1-c1ccc(Br)cc1	1230 nM	> 100000 nM	6790 nM
CCC(Sc1nc2ccccc2n1C(C)=O)C(=O)NC1=NN=C(c2ccc(Br)cc2)CS1 (configuration not stated)	543 nM	46700 nM	549 nM
c1ccc(-c2nc3cc4nc(-c5ccccc5)[nH]c4cc3[nH]2)cc1	1200 nM	> 100000 nM	285 nM
CN(CCCNc1ccnc2cc(Cl)ccc12)C(=O)c1ccc(C(C)(C)C)cc1	46.5 nM	3890 nM	81.2 nM
O=C1c2ccccc2C2=Nc3ccccc3SC(c3ccccc3F)C12 (configuration not stated)	278 nM	22900 nM	209 nM
CCN1CCN(c2c(C(=O)c3ccccc3)cnc3cc(OC)c(OC)cc23)CC1	1220 nM	> 100000 nM	3020 nM
O=C(NC1CCN(CC(O)CN(Cc2ccccc2)S(=O)(=O)c2ccccc2)C1)C1CCCCC1 (configuration not stated)	116 nM	> 10000 nM	185 nM
CC(C)NC(=O)c1ccc2c(c1)N=C(c1ccccc1)N(C1CC1)C2	117 nM	> 10000 nM	> 1680 nM
COc1ccc(OC)c(-c2ccc(O)c(CNCc3ccccc3OC)c2)c1	117 nM	> 10000 nM	> 1520 nM
